What all share (assay): growth of human tumour cells (NCI), 48 h
Test [1] deals with RXF 393 renal.
In test [2] the test system is SNB-19 CNS.
For test [3], the system named is HCT-116 colon.
The subject of test [4] is HCT-15 colon.
Test [5] concerns EKVX NSCLC.
Test [6] has as its system UACC-257 melanoma.
Test [7] concerns SF-268 CNS.
The test system of test [8] is SF-295 CNS.
The subject of test [9] is T-47D breast.

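Where inhibition never reached the appropriate level, the endpoint shown equals the highest concentration tested. Otherwise, values were interpolated linearly from a five-concentration, 48-hour dose response in 96-well plates. Here, GI50 denotes the concentration required for 50% inhibition of growth. The concentration for full growth arrest is given as TGI.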

For `CC1=NNC(=O)C2CCC(=O)N12` (stereo not drawn), the TGI in [1], in test [2], in test [3], in test [4], in test [5] and in [6] was more than 100 µM throughout. The TGI in test [7] is more than 100 µM.

Consider `COc1cc(C(Cc2ccccc2)NC(C)=O)oc(=O)c1` (stereo not drawn), for which the TGI in [1], in [2], in test [4], in test [5], in [6] and in test [7] was more than 100 µM each time. Also, the TGI in test [8] was more than 100 µM.

Regarding `[N-]=[N+]=NC12CC3C4CC5CC3C(C1)C(C5)C4C2`, the TGI in test [2], in test [3], in test [5], in test [6], in [7] and in [8] was more than 100 µM each time.

With `Cn1c2ccccc2c2c3c(c4c5cc(Br)ccc5n(C)c4c21)C(=O)N(O)C3=O`, the GI50 in test [1] was 0.217 µM; in test [2], 0.0536 µM; in test [4], 0.199 µM; in test [6], 0.264 µM; in test [8], 0.217 µM. The TGI was 0.703 µM in test [1]; more than 100 µM in [2]; more than 100 µM in test [4]; more than 100 µM in test [6]; 0.981 µM in test [8].

As to `CC(C)c1ccccc1NC(=O)CCc1n[nH]c(=S)o1`, the TGI is more than 100 µM in test [1]; more than 100 µM in [2]; more than 100 µM in test [3]; more than 56.9 µM in [4]; more than 100 µM in test [5]; more than 100 µM in test [6]. Moreover, the TGI in test [7] and in [8] was more than 100 µM throughout.

For the molecule `S=C(Nc1ccccc1)N(/N=C/C=C/c1ccccc1)c1nnc(-c2ccccc2)c(-c2ccccc2)n1`, the TGI in [1], in test [2], in test [4], in test [5], in test [6] and in test [7] was more than 100 µM in each case. In test [8], this molecule came in with a TGI of more than 100 µM.

Take `CCC[CH2][Sn]1([CH2]CCC)[O]N=C(c2ccccc2)C(c2ccccc2)[O]1` (stereo not drawn): the GI50 in test [1] is 1.5 µM; in test [2], 2.14 µM; in test [3] it was 1.67 µM; in test [4], 1.46 µM; in test [5], 1.16 µM; in test [6] it was 2.02 µM. Also, the GI50 in [8] was 1.73 µM. The TGI in [1] came out at 2.87 µM; in test [2] it was 5.04 µM; in [3], 3.35 µM; in test [4] it was 2.77 µM; in test [5], 3.01 µM; in test [6], 4.51 µM. In addition, the TGI in [8] stood at 3.41 µM.

For `Cn1c2c(c3ccccc31)C1CCCCCCC1C1C(=O)OC(=O)C21` (stereo not drawn), the TGI in test [1] is 49 µM; in [2] it was more than 100 µM; in test [4] it was more than 100 µM; in test [5], more than 100 µM; in test [7], more than 100 µM; in test [8], more than 100 µM.

In the case of `O=[N+]([O-])c1ccc(C2=Nn3cnnc3SC2)o1`, the TGI in [1] came to 32.9 µM; in test [2], 79 µM; in test [3], 30.8 µM; in test [4] it was 27.2 µM; in [6], 29.6 µM; in [7], 58.2 µM. The TGI in test [8] is 34.6 µM.

In the case of `COc1cccc(/C=C/c2cc(OC)c(OC)c(OC)c2)c1`, the TGI in [2], in [3], in [4], in test [5], in test [6] and in [7] was more than 100 µM in each case.

For `CN(C)c1nc2ccccc2[nH]1`, the TGI in [1], in test [4], in test [5], in [6], in [7] and in [8] was more than 100 µM throughout.

With `NNC(=S)N/N=C(\CC1OC(=O)c2ccccc21)c1ccccc1O` (stereo not drawn), the TGI in [1] was 77.3 µM; in test [2] it was more than 100 µM; in test [3], more than 100 µM; in [4], more than 100 µM; in test [5] it was more than 100 µM; in test [6], more than 100 µM. Moreover, the TGI in test [7] was more than 100 µM; in test [8], 40.4 µM.

For the molecule `Cc1ccc(NC(=O)C(=O)C(C(=O)c2ccc3ccccc3c2)C2OC(=O)c3ccccc32)cc1C` (stereo not drawn), the TGI in [2] is 21.3 µM; in [3], 25.5 µM; in [4], 24.2 µM; in [5], more than 100 µM; in test [6] it was 42.4 µM; in test [7] it was 52.8 µM.

In the case of `CCOC(=O)CCCn1c(SC)nc2[nH]cc(-c3ccccc3)c2c1=O`, the GI50 in test [1] is 18.2 µM; in test [2], 21 µM; in test [3] it was 14.1 µM; in test [9] it was 18.2 µM; in test [4] it was 27.1 µM; in test [5] it was 24.8 µM. The GI50 was 22.7 µM in test [6], 20.8 µM in test [7] and 11.6 µM in test [8]. In addition, the TGI in test [1] was 49 µM; in test [2], more than 100 µM; in [3], 34 µM; in [9], 61.4 µM; in test [4] it was more than 100 µM; in test [5], 85.8 µM. For the same molecule, the TGI in [6] came to 44.3 µM; in [7], 87.8 µM; in [8] it was 34.2 µM.

With `N#CC(N)(C(=O)CCC(=O)Nc1cccc(Cl)c1)c1ccc(Cl)cc1` (stereo not drawn), the TGI in test [2], in test [3], in test [4], in [5], in test [6] and in test [7] was more than 100 µM in each case. The molecule also came in with a TGI in test [8] of more than 100 µM.

The values are drawn from PubChem BioAssay (NCI).
